Among the data in patent US9334269B2, “Carboxamides as inhibitors of voltage-gated sodium channels” (AMGEN INC., priority 2010, dated 2016) are IC50 values, retold here.

For one experiment, the target named is T1, human Nav1.7 (hNav1.7) (Homo sapiens, UniProt Q15858).
T1 construct: expressed in transfected cells
T1 sequence (Q15858 whole entry): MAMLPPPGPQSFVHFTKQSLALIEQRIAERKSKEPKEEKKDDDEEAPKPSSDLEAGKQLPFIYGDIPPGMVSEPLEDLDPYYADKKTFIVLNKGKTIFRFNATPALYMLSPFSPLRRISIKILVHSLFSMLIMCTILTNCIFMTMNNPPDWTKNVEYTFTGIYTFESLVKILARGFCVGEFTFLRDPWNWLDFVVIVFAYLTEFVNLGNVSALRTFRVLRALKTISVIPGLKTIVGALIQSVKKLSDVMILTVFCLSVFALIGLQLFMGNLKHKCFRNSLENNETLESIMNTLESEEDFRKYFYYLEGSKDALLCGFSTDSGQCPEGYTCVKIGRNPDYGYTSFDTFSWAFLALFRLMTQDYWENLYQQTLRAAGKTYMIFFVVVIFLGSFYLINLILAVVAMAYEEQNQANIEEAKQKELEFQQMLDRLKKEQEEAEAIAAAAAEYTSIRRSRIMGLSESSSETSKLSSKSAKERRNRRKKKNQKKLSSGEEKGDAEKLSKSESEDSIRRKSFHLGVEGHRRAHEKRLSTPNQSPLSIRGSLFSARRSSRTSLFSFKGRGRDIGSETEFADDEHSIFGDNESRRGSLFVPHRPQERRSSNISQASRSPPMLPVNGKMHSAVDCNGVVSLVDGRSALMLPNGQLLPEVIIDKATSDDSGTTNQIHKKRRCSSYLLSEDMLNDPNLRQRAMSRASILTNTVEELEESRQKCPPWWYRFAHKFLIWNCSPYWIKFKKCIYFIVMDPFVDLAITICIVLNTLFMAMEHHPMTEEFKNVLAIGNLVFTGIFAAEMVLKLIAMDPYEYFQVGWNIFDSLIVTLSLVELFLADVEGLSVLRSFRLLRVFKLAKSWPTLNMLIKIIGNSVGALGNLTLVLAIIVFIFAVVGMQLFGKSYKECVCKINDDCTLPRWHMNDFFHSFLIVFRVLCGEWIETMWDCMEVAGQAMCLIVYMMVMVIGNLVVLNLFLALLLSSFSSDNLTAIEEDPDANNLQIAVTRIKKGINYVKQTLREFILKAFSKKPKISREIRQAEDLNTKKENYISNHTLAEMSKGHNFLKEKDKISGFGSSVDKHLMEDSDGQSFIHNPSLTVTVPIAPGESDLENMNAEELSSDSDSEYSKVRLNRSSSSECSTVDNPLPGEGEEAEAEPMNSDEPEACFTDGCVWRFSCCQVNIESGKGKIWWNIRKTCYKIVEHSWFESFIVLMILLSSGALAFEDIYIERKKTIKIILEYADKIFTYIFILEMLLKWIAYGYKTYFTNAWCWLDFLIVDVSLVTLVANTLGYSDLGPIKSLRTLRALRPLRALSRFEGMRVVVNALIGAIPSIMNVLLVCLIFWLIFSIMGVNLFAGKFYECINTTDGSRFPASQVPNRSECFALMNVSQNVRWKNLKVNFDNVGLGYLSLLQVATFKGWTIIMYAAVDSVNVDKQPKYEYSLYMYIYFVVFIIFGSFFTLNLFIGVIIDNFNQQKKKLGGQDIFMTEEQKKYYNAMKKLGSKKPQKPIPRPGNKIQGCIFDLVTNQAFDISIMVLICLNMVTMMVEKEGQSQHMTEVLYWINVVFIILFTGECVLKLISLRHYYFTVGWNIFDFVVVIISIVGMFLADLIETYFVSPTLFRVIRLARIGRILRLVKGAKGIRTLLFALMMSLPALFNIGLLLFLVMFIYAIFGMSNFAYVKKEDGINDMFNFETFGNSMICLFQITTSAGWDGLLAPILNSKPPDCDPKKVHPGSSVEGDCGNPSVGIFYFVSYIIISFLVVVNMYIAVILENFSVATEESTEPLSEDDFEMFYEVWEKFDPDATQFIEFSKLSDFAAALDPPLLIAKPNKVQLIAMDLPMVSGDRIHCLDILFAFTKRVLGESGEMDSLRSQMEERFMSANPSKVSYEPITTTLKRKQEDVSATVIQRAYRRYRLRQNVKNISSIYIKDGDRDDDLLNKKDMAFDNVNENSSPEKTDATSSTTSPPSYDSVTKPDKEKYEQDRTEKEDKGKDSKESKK
Description: hNav1.7 whole-cell patch-clamp electrophysiology (automated PatchXpress 7000A or manual) in stably expressing 293 cells. Type of experiment: cell-based. Conditions: average IC50. The essentials: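 Stably transfected 293 cells lacking endogenous sodium channels; peak current evoked by depolarizing pulses during increasing compound concentrations, automated at ~20% fractional inactivation, or manually at −140 mV (resting) and ~20% inactivation. Block taken at steady state, corrected for rundown; IC50 by Hill fit.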
On the technique in general: Patch clamp records ionic current or voltage across a cell membrane.
As for `CNC(=O)c1cccc(Nc2ncnc(N3CC(C)(Oc4ccccc4)C3)n2)c1` [Example 263], the half-maximal inhibitory concentration (IC50) (in general, the concentration that gives 50% inhibition) is 18.1 µM.

For `CNC(=O)c1cccc(Nc2ncnc(N3CC(Oc4ccc(C5CCCC5)cc4)C3)n2)c1` [Example 264], the 50% inhibitory concentration (IC50) is 18.9 µM.

As to `CNC(=O)c1cccc(Nc2ncnc(N3CCc4oc(-c5ccccc5)cc4C3)n2)c1` [Example 265], the IC50 turned out to be 19.2 µM.

The compound `CNC(=O)c1cc(Nc2ncnc(N3CC(Oc4ccc(F)cc4)C3)n2)ccc1C` [Example 266] displayed an IC50 of 19.7 µM.

Consider `Cc1c(Nc2ncnc(N3CCC(OCc4ccc(OC(F)(F)F)cc4)CC3)n2)cccc1C(N)=O` [Example 267], for which half-maximal inhibition (IC50) required 20.9 µM.

As for `CNC(=O)c1cccc(Nc2ncnc(N3CCc4c(cnn4-c4ccccc4)C3)n2)c1` [Example 268], half-maximal inhibition (IC50) was put at 20.9 µM.

`CNC(=O)c1cccc(Nc2ncnc(N3CCc4cccc(C(F)(F)F)c4C3)n2)c1` [Example 269] registered an IC50 of 21 µM.

`CNC(=O)c1cccc(Nc2ncnc(N3CC(Oc4ccc(F)cc4)C3)n2)c1F` [Example 270] showed an IC50 of 21.1 µM.

On to `CNC(=O)c1cccc(Nc2ncnc(N3CCN(c4ccc(F)c(Cl)c4)CC3)n2)c1` [Example 271], for which the midpoint of inhibition, the IC50, lay at 21.4 µM.

Compound `CNC(=O)c1cccc(Nc2ncnc(N3CC(OCc4ccc(F)cc4)C3)n2)c1` [Example 272] gave a half-inhibitory concentration (IC50) of 21.7 µM.

Turning to `CNC(=O)c1cccc(Nc2ncnc(N3CC(C)(COc4ccccc4)C3)n2)c1` [Example 273], the IC50 was determined as 22.1 µM.

With `CNC(=O)c1cccc(Nc2ncnc(N3CC(Oc4c(F)cccc4F)C3)n2)c1` [Example 274], the IC50 worked out at 22.1 µM.

For the compound `CNC(=O)c1cccc(Nc2ncnc(N3CCc4cc(OCC(F)(F)F)ccc4C3)n2)c1C` [Example 275], half-maximal inhibition (IC50) required 22.6 µM.

Compound `CNC(=O)c1cccc(Nc2ncnc(N3CC(COc4ccccc4C(F)(F)F)C3)n2)c1` [Example 276] had an IC50 of 23.6 µM.

With `CNC(=O)c1cccc(Nc2ncnc(N3CCC(OCc4cccc(OC(F)(F)F)c4)CC3)n2)c1` [Example 277], the IC50 was 25.4 µM.

The same experiment, now with this note: average IC50, human Nav1.7.
As for `CNC(=O)c1cccc(Nc2ncnc(N3CC(Oc4ccccc4OC)C3)n2)c1` [Example 204], the midpoint of inhibition, the IC50, lay at 7.42 µM.

The compound `O=C(NC1CC1)c1cccc(Nc2ncnc(N3CC(Oc4ccc(F)cc4)C3)n2)c1` [Example 205] showed a half-maximal inhibitory concentration (IC50) of 7.42 µM.

The compound `CNC(=O)c1cccc(Nc2ncnc(N3CCC(OCc4ccccc4)CC3)n2)c1` [Example 206] displayed an IC50 of 7.93 µM.

The compound `CNC(=O)c1cccc(Nc2ncnc(N3CC(Oc4ccc(CC#N)cc4)C3)n2)c1` [Example 207] came in with an IC50 of 7.98 µM.

In turn, `CNC(=O)c1cccc(Nc2ncnc(N3CC(COc4ccc(Cl)c(C(F)(F)F)c4)C3)n2)c1` [Example 208] had an IC50 of 8.11 µM.

`CNC(=O)c1cccc(Nc2ncnc(N3CCC(Oc4ccccc4OC(F)(F)F)CC3)n2)c1` [Example 209] displayed an IC50 of 8.15 µM.

In turn, `CNC(=O)c1cccc(Nc2ncnc(N3CC(Oc4ccc(C#N)cc4)C3)n2)c1` [Example 210] gave an IC50 of 8.24 µM.

In turn, `CNC(=O)c1cccc(Nc2ncnc(N3CCC3COc3ccc(Cl)cc3)n2)c1` (centres unmarked) [Example 211] registered an IC50 of 8.3 µM.

`CNC(=O)c1cccc(Nc2ncnc(N3CCCC(Oc4ccccc4Cl)C3)n2)c1` (centres unmarked) [Example 212]: the half-maximal inhibitory concentration (IC50) was 8.31 µM.

In the case of `CC(C)(C)NC(=O)c1cccc(Nc2ncnc(N3CC(Oc4ccc(F)cc4)C3)n2)c1` [Example 213], 8.39 µM corresponded to half-maximal inhibition (IC50).

`CNC(=O)c1cccc(Nc2ncnc(N3CC(Oc4ccc(OCc5ccccc5)cc4)C3)n2)c1` [Example 214] came in with an IC50 of 8.47 µM.

`CNC(=O)c1cccc(Nc2ncnc(N3CCC(c4ccc(C#N)c(C(F)(F)F)c4)CC3)n2)c1` [Example 215]: 8.59 µM corresponded to half-maximal inhibition (IC50).

`CNC(=O)c1cccc(Nc2ncnc(N3CCc4cc(C(F)(F)F)ccc4C3)n2)c1` [Example 216] registered an IC50 of 8.6 µM.

Compound `CNC(=O)c1cccc(Nc2ncnc(N3CC(Oc4ccccc4-c4ccccc4)C3)n2)c1` [Example 217] came in with a half-maximal inhibitory concentration (IC50) of 8.66 µM.

`CNC(=O)c1cccc(Nc2cc(N3CC(Oc4ccc(F)cc4)C3)ncn2)c1` [Example 218] yielded an IC50 of 8.68 µM.

Compound `CNC(=O)c1cc(Nc2ncnc(N3CC(Oc4ccc(Cl)cc4)C3)n2)ccc1O` [Example 219] yielded a 50% inhibitory concentration (IC50) of 8.82 µM.

`CNC(=O)c1cccc(Nc2ncnc(N3CCc4ccc(OC)cc4C3)n2)c1` [Example 220] came in with an IC50 of 8.85 µM.

Regarding `NC(=O)c1cccc(Nc2ncnc(N3CCc4cc(Br)ccc4C3)n2)c1` [Example 221], the IC50 turned out to be 8.9 µM.

Take `CNC(=O)c1cccc(Nc2ncnc(N3CCc4cc(OC)ccc4C3)n2)c1` [Example 222]: the IC50 came to 8.96 µM.

In turn, `CNC(=O)c1cccc(Nc2ncnc(N3CC(COc4ccc(OC)cc4)C3)n2)c1` [Example 223] registered an IC50 of 9.19 µM.

The compound `CNC(=O)c1cccc(Nc2ncnc(N3CC(Oc4cc(Cl)cc(Cl)c4)C3)n2)c1` [Example 224] yielded a half-maximal inhibitory concentration (IC50) of 9.29 µM.

`CNC(=O)c1cccc(Nc2ncnc(N3CCc4c(F)cccc4C3)n2)c1` [Example 225] came in with a half-maximal inhibitory concentration (IC50) of 9.31 µM.

The compound `CNC(=O)c1cccc(Nc2ncnc(N3CC(Oc4ccc(F)c(F)c4F)C3)n2)c1` [Example 226] returned an IC50 of 9.35 µM.

As for `Cc1ccc(N2CCN(c3ncnc(Nc4ccc(Cl)c(C(N)=O)c4)n3)CC2)cc1C` [Example 227], the IC50 came out at 9.36 µM.

Regarding `CNC(=O)c1cccc(Nc2ncnc(N3CCC(OCc4ccc(F)c(F)c4)CC3)n2)c1` [Example 228], half-maximal inhibition (IC50) required 9.42 µM.

`CNC(=O)c1cccc(Nc2ncnc(N3CC(COc4ccccc4OC(F)(F)F)C3)n2)c1` [Example 229] registered an IC50 of 9.44 µM.

As for `CNC(=O)c1cccc(Nc2ncnc(N3CCC(Cc4ccccc4)CC3)n2)c1` [Example 230], the midpoint of inhibition, the IC50, lay at 9.5 µM.

Compound `CNC(=O)c1cccc(Nc2ncnc(N3CCC(c4nc(C(C)C)no4)CC3)n2)c1` [Example 231] had an IC50 of 9.66 µM.

`CNC(=O)c1cccc(Nc2ncnc(NCCCc3ccc(Cl)cc3)n2)c1` [Example 232] returned an IC50 of 9.84 µM.

As for `CNC(=O)c1cccc(Nc2ncnc(N3CCc4cc(OCCOC)ccc4C3)n2)c1` [Example 233], the IC50 amounted to 9.87 µM.

For the compound `CNC(=O)c1cccc(Nc2ncnc(N3CC(COc4ccc5ccccc5c4)C3)n2)c1` [Example 234], the IC50 was 10 µM.

Compound `NC(=O)c1cccc(Nc2ncnc(N3CCc4ccccc4C3)n2)c1` [Example 235] yielded an IC50 of 10.3 µM.

`CNC(=O)c1cccc(Nc2ncnc(NCCOc3ccc(Cl)cc3)n2)c1` [Example 236]: the IC50 came out at 10.4 µM.

In turn, `NC(=O)c1cccc(Nc2ncnc(N3CC(Oc4ccc(F)cc4)C3)n2)c1` [Example 237] returned an IC50 of 10.7 µM.

As to `CNC(=O)c1cccc(Nc2ncnc(N3CCC(Oc4ccccc4F)CC3)n2)c1` [Example 238], the IC50 was 10.8 µM.

As for `CNC(=O)c1cccc(Nc2ncnc(N3CCC(OCc4cccc(C(F)(F)F)c4)CC3)n2)c1` [Example 239], half-maximal inhibition (IC50) was put at 10.8 µM.

`CN(C)C(=O)c1cccc(Nc2ncnc(N3CCC(OCc4ccc(OC(F)(F)F)cc4)CC3)n2)c1` [Example 240] gave a concentration for half-maximal inhibition (IC50) of 11.1 µM.

For `CNC(=O)c1cccc(Nc2ncnc(N3CC(COCc4ccc(Cl)cc4)C3)n2)c1` [Example 241], the IC50 was determined as 11.1 µM.

For `CNC(=O)c1cccc(Nc2ncnc(N3CC(COc4cccc(F)c4)C3)n2)c1` [Example 242], inhibition was half-maximal at 11.2 µM (IC50).

Compound `CNC(=O)c1cccc(Nc2ncnc(N3CCc4ccccc4C3)n2)c1` [Example 243] came in with an IC50 of 11.5 µM.

`CNC(=O)c1cccc(Nc2ncnc(N3CC(COc4cccc(OC)c4)C3)n2)c1` [Example 244] gave an IC50 of 12 µM.

`CNC(=O)c1cccc(Nc2ncnc(N3CCC(C#N)(c4ccc(F)cc4)CC3)n2)c1` [Example 245] showed a half-inhibitory concentration (IC50) of 12.5 µM.

For the compound `CCCc1noc(C2CCN(c3ncnc(Nc4cccc(C(=O)NC)c4)n3)CC2)n1` [Example 246], half-maximal inhibition (IC50) required 12.7 µM.

With `CNC(=O)c1cccc(Nc2ncnc(N3CC(COc4ccccc4Cl)C3)n2)c1` [Example 247], the IC50 worked out at 12.8 µM.

Compound `CNC(=O)c1cccc(Nc2ncnc(N3CCC(c4ccc(C#N)c(OC(F)(F)F)c4)CC3)n2)c1` [Example 248] had an IC50 of 12.9 µM.

For the compound `CNC(=O)c1cccc(Nc2ncnc(N3CCC(c4ccc(Cl)cc4)CC3)n2)c1` [Example 249], 13.1 µM corresponded to half-maximal inhibition (IC50).

For the compound `CNC(=O)c1cccc(Nc2ncnc(N3CCC(Sc4ccc(C)cc4)CC3)n2)c1` [Example 250], the half-inhibitory concentration (IC50) amounted to 13.1 µM.

The compound `CNC(=O)c1cccc(Nc2ncnc(N3CC(COc4ccccc4F)C3)n2)c1` [Example 251] yielded a half-inhibitory concentration (IC50) of 13.8 µM.

Compound `CNC(=O)c1cccc(Nc2ncnc(N3CCc4c(cccc4OCCOC)C3)n2)c1` [Example 252] gave an IC50 of 15 µM.

`CNC(=O)c1cccc(Nc2ncnc(N3CC(COc4cccc5ccccc45)C3)n2)c1` [Example 253] gave an IC50 of 15.2 µM.

Compound `CNC(=O)c1cccc(Nc2ncnc(NCc3nc(-c4ccccc4)no3)n2)c1` [Example 254] came in with an IC50 of 15.7 µM.

In the case of `CNC(=O)c1cccc(Nc2ncnc(N3CC(COc4ccc(Cl)c5cccnc45)C3)n2)c1` [Example 255], the IC50 turned out to be 16 µM.

Turning to `CNC(=O)c1cccc(Nc2ncnc(N3CC(Oc4cccc(C(F)(F)F)c4F)C3)n2)c1` [Example 256], the IC50 was determined as 16.7 µM.

Compound `CNC(=O)c1cccc(Nc2ncnc(N3CCC(Nc4ccccc4)CC3)n2)c1` [Example 257] registered an IC50 of 16.9 µM.

As for `CNC(=O)c1cccc(Nc2ncnc(N3CC(COc4ccc(C#N)cc4)C3)n2)c1` [Example 258], half-maximal inhibition (IC50) was put at 16.9 µM.

Consider `CNC(=O)c1cccc(Nc2ncnc(N3CCC4(CC3)OCc3ccccc34)n2)c1` [Example 259], for which half-maximal inhibition (IC50) required 17.1 µM.

In turn, `CNC(=O)c1cccc(Nc2ncnc(NCCCOc3cccc(F)c3)n2)c1` [Example 260] had an IC50 of 17.6 µM.

Consider `CNC(=O)c1cccc(Nc2ncnc(N3CCC(COCC4CC4)CC3)n2)c1` [Example 261], for which the IC50 is 17.7 µM.

`CNC(=O)c1cc(Cl)cc(Nc2ncnc(N3CC(Oc4ccc(F)cc4)C3)n2)c1` [Example 262] came in with an IC50 of 17.8 µM.
